According to patent US10738024B2, “Compounds for treatment of angiogenesis-mediated diseases” (Indiana University Research and Technology Corporation, priority 2013, dated 2020):
“Also recorded” adds a separate entry of the source.

Tests used:
[1] = tested on: HRECs; test: Matrigel tube formation by HRECs; assay type: cell-based, human; details: for tube formation ability of HRECs: compared to DMSO control, concentration not given
Protocol: Matrigel assays were performed as described in Ponce (2001) In vitro matrigel angiogenesis assays, Methods Mol Med 46: 205-209, with slight modifications for the use of HRECs. Briefly, HRECs were starved overnight at 0.5% FBS in EBM-2 and plated on a 96-well plate at a density of 7,500 cells/well over 50 μL of Matrigel high concentration basement membrane. SH-11052 (2) was added at the indicated concentrations in EBM-2+1% FBS. Cells were observed every 2 hours by bright field microscopy at 40× magnification for tube formation. Closed units (polygons) were manually counted at 8 hours post plating and numbers normalized to the DMSO control. Assays were performed in triplicate.
For determining the effect of analog compound SH-11037 (6c) on tube formation, HRECs were plated in 100 μL of EGM-2 containing SH-11037 (6c) (0 nM, 50 nM and 200 nM) dissolved in DMSO in 96-well MatriGel-coated plates for one hour. Wells were photographed after 8 hours and number of polygons (enclosed shapes bordered by tubes) manually counted and expressed as a percentage of the DMSO-only control.

[2] = tested on: IL8; test: qRT-PCR of NF-κB target gene IL8 in TNF-α challenged cells; assay type: cell-based, human; details: 10 ng/ml TNF-α for 24 hours; listed as SH-11052 (2)
Protocol: (§1) Similarly, the mRNA expression of the pro-inflammatory molecules IL8, PTGS2 (COX2) and CCL2 (MCP-1), inducible by NF-κB, were analyzed in the presence of SH-11052 (2). Cells (10^5 per well) were seeded in a 6-well plate and incubated for 24 hours at 37° C. and 5% CO2. The cells were then starved in 0.1% serum-EBM-2 for 12 hours followed by incubation for an hour in the presence of different concentrations of SH-11052 (2). The cells were then challenged for 24 hours with 10 ng/ml TNF-α. Following incubation, cells were lysed and RNA was isolated using Trizol reagent (Life Technologies). cDNA was prepared from 80 ng total RNA using random primers and M-MuLV Reverse Transcriptase (New England Biolabs, Ipswich, Mass., USA). RT-PCR reactions were set up using the TaqMan Fast Gene Expression Assay Kit according to the manufacturer's instructions. FAM-labeled TaqMan probes for PTGS2 (Hs00153133_m1), CCL2 (Hs00234140_m1), IL8 (Hs00174103_m1), and control, TBP (Hs99999910_m1), genes were used to monitor the expression levels of these genes. The qRT-PCR plate was read in a ViiATM 7 qPCR system (Life Technologies) and the data were analyzed using the ΔΔCt method. The expression levels of genes were normalized to TBP gene expression and calibrated to the DMSO-treated, unstimulated sample.

[3] = tested on: CCL2 (MCP-1); test: qRT-PCR of NF-κB target gene CCL2 in TNF-α challenged cells; assay type: cell-based, human; details: 10 ng/ml TNF-α for 24 hours; listed as SH-11052 (2)
Protocol: as §1

[4] = tested on: Akt; test: Phosphorylation of Akt in HRECs upon VEGF stimulation (immunoblot); assay type: cell-based, human; details: 100 ng/ml VEGF, 20 minutes
Protocol: HRECs were seeded at 10^5 cells/well in a 6-well plate and after 24 hours of incubation at 37° C., cells were serum starved in 0.1% serum-EBM-2 for 8 hours. Cells were then treated with the indicated concentrations of SH-11052 (2) for one hour before the addition of 100 ng/ml VEGF. After 20 minutes, cells were lysed in NP-40 Lysis buffer containing 25 mM HEPES pH 7.4, 1% NP-40, 150 mM NaCl, 10% glycerol, 1 mM sodium orthovanadate, 10 mM sodium fluoride, 1 mM sodium pyrophosphate, 1 mM PMSF, 2.5 mg/ml aprotinin, 1 mM pepstatin, and 1 mM leupeptin. Equal amounts of proteins (80 μg), as measured by a Bradford assay, were run on 10% SDS-PAGE, transferred to PVDF membrane, blocked with 5% BSA in TBS-0.05% Tween-20 and immunoblotted with the indicated primary antibodies (1:1000 in 1% BSA in TBS-0.05% Tween-20) overnight at 4° C. After three washes in TBS-0.05% Tween-20, HRP-conjugated secondary antibodies (1:5000 in 5% BSA in TBS-0.05% Tween-20) were applied for one hour at room temperature. After three washes, the protein bands were detected and densitized using ECL Prime western blot detection reagent (GE Life Sciences, Piscataway, N.J., USA) and an XRS gel documentation system running Quantity One software (Bio-Rad). Target protein band intensity was normalized to housekeeping gene α-tubulin. […]

[5] = tested on: HRECs; test: Migration of HRECs; assay type: cell-based, human
[6] = tested on: p21, CDK1, IL-6 and IL-8; test: Gene expression effects on p21, CDK1, IL-6 and IL-8 (data not shown); assay type: cell-based; details: compared with cremastranone
[7] = tested on: oxygen-induced retinopathy (OIR); test: Oxygen-induced retinopathy (OIR) mouse model, intravitreal injection; assay type: in vivo, C57BL/6 mice; details: single intravitreal dose, estimated 1 μM, injected P12, read P17; listed as SH-11037 (6c)
Protocol: Particularly, neonatal C57BL/6 mice (n=3-4 pups per group) were exposed to 75% oxygen from postnatal day 7 (P7) until P12 and brought to room air to cause ischemia and extensive neovessel formation at P17. The hyperoxia obliterates the normal retinal vasculature, prompting aberrant overgrowth including intravitreal vascular tufts, once returned to normoxia. Further, mice were injected with PBS alone (vehicle) or PBS containing SH-11037 (6c) to give the estimated intravitreal concentrations of 1.0 μM using a 33G needle, under isoflurane anesthesia at the time of return to room air on P12. At P17, the mice were euthanized, eyes fixed, and retinal wholemounts were prepared.
Wholemounts were stained with AlexaFluor488-isolectin B4 and imaged on a Zeiss LSM700 confocal microscope. Neovascular area, as a percentage of total retinal area, was calculated using ImageJ with the SWIFT_NV plugin.

COc1ccc(CC2COc3cc(OC)c(O)c(O)c3C2=O)cc1O (single isomer, unassigned) [Compound 2]
tube formation ability of HRECs at 140 μM ([1]; 140 μM, 8 hours): completely abolished
tube formation ability of HRECs ([1]; listed as SH-11052 (2)): inhibited tube formation; also recorded: significant reduction in their tube formation ability
tube formation of HRECs at the GI50 value ([1]; compound at its GI50 value, 8 hours): significant reduction in tube formation
mRNA expression of IL8 [2]: decreased the expression
mRNA expression of CCL2 (MCP-1) [3]: decreased the expression
activation (phosphorylation) of Akt [4]: inhibited activation

COc1ccc(CC2COc3cc(OC)c(OC)c(OC)c3C2=O)cc1OC(=O)[C@H](Cc1ccccc1)NC(=O)OC(C)(C)C (stereo partly drawn) [Compound 6c, (2S)-2-methoxy-5-((5,6,7-trimethoxy-4-oxochroman-3-yl)methyl)phenyl 2-((tert-butoxycarbonyl)amino)-3-phenylpropanoate]
migration of HRECs [5]: blocked migration
block of HREC tube formation ([1]; 500 nM, polygons vs DMSO-only control): 88%
tube formation ability of HRECs [1]: inhibited
gene expression effects on p21, CDK1, IL-6 and IL-8 [6]: did not share cremastranone's gene expression effects
neovascular area / neovascularization in vivo [7]: blocked neovascularization in vivo; also recorded: significantly decreased neovascular area
